Test system: MV-4-11 cells
Assay: Gene expression microarray analysis (Affymetrix PrimeView) and GSEA
Assay type: cell-based, human
Design: RFU PODN (11730768_x_at) / Fold change /veh PODN (11730768_x_at) / RFU LINC00158 (11744669_a_at) / Fold change /veh LINC00158 (11744669_a_at) / RFU DUSP10 (11751237_a_at) / Fold change /veh DUSP10 (11751237_a_at) / RFU ID3 (11757404_x_at) / Fold change /veh ID3 (11757404_x_at) / RFU PLEKHG5 (11737974_s_at) / Fold change /veh PLEKHG5 (11737974_s_at) / RFU LRRC4B (11730491_at) / Fold change /veh LRRC4B (11730491_at) / RFU GIMAP4 (11747438_a_at) / Fold change /veh GIMAP4 (11747438_a_at) / RFU KRT8 (11758183_x_at) / Fold change /veh KRT8 (11758183_x_at) / RFU CNN1 (11734310_a_at) / Fold change /veh CNN1 (11734310_a_at) / RFU VPS37D (11726825_at) / Fold change /veh VPS37D (11726825_at) / RFU C10orf10 (11716522_x_at) / Fold change /veh C10orf10 (11716522_x_at) / RFU KIR2DL2 /// KIR2DL4 /// KIR2DL5A /// KIR2DL5B /// KIR2DS1 /// KIR2DS2 /// KIR2DS3 /// KIR2DS4 /// KIR3DL3 /// KIR3DL3 /// KIR3DS1 (11738374_at) / Fold change /veh KIR2DL2 /// KIR2DL4 /// KIR2DL5A /// KIR2DL5B /// KIR2DS1 /// KIR2DS2 /// KIR2DS3 /// KIR2DS4 /// KIR3DL3 /// KIR3DL3 /// KIR3DS1 (11738374_at) / RFU C1QL1 (11718748_at) / Fold change /veh C1QL1 (11718748_at) / RFU TMPRSS4 (11747572_a_at) / Fold change /veh TMPRSS4 (11747572_a_at) / RFU HAMP (11756126_x_at) / Fold change /veh HAMP (11756126_x_at) / RFU RNFT2 (11725882_a_at) / Fold change /veh RNFT2 (11725882_a_at) / RFU NR4A2 (11747474_a_at) / Fold change /veh NR4A2 (11747474_a_at) / RFU ABCC12 (11746883_a_at) / Fold change /veh ABCC12 (11746883_a_at) / RFU TMEM136 (11760407_x_at) / Fold change /veh TMEM136 (11760407_x_at) / RFU CLDN22 /// WWC2 (11732394_at) / Fold change /veh CLDN22 /// WWC2 (11732394_at) / RFU HLA-DPB1 (11760878_x_at) / Fold change /veh HLA-DPB1 (11760878_x_at) / RFU SPINT1 (11716480_a_at) / Fold change /veh SPINT1 (11716480_a_at) / RFU GAP43 (11754022_s_at) / Fold change /veh GAP43 (11754022_s_at) / RFU A4GNT (11735810_at) / Fold change /veh A4GNT (11735810_at) / RFU PRB3 (11715151_x_at) / Fold change /veh PRB3 (11715151_x_at) / RFU TUBB4B (11761932_at) / Fold change /veh TUBB4B (11761932_at) / RFU CAPN14 (11732068_a_at) / Fold change /veh CAPN14 (11732068_a_at) / RFU TMCC2 (11721928_a_at) / Fold change /veh TMCC2 (11721928_a_at) / RFU IRGQ (11745062_a_at) / Fold change /veh IRGQ (11745062_a_at) / RFU FAM174B (11720279_a_at) / Fold change /veh FAM174B (11720279_a_at) / RFU TMPRSS4 (11748680_a_at) / Fold change /veh TMPRSS4 (11748680_a_at) / RFU FAM212B (11763350_a_at) / Fold change /veh FAM212B (11763350_a_at) / RFU PLEKHG5 (11743358_a_at) / Fold change /veh PLEKHG5 (11743358_a_at) / RFU ZSCAN30 (11745921_a_at) / Fold change /veh ZSCAN30 (11745921_a_at) / RFU CMKLR1 (11741424_a_at) / Fold change /veh CMKLR1 (11741424_a_at) / RFU LOC101060620 /// MAPK8IP1 (11723275_at) / Fold change /veh LOC101060620 /// MAPK8IP1 (11723275_at) / RFU SPTSSB (11747773_x_at) / Fold change /veh SPTSSB (11747773_x_at) / RFU PRSS12 (11739890_at) / Fold change /veh PRSS12 (11739890_at) / RFU BIN1 (11741810_x_at) / Fold change /veh BIN1 (11741810_x_at) / RFU WNT11 (11732464_a_at) / Fold change /veh WNT11 (11732464_a_at) / RFU C10orf10 (11716521_a_at) / Fold change /veh C10orf10 (11716521_a_at) / RFU C5orf56 (11738089_at) / Fold change /veh C5orf56 (11738089_at) / RFU CYB561 (11721691_x_at) / Fold change /veh CYB561 (11721691_x_at) / RFU ANKRD19P (11752326_a_at) / Fold change /veh ANKRD19P (11752326_a_at) / RFU OR2T12 /// OR2T33 /// OR2T8 (11738714_s_at) / Fold change /veh OR2T12 /// OR2T33 /// OR2T8 (11738714_s_at) / RFU VCAN (11748164_a_at) / Fold change /veh VCAN (11748164_a_at) / RFU JSRP1 (11732532_at) / Fold change /veh JSRP1 (11732532_at) / RFU KRTAP10-11 (11738290_x_at) / Fold change /veh KRTAP10-11 (11738290_x_at) / RFU MYO3A (11730013_a_at) / Fold change /veh MYO3A (11730013_a_at) / RFU EBF3 (11725865_a_at) / Fold change /veh EBF3 (11725865_a_at) / RFU CAMK2N1 (11719241_x_at) / Fold change /veh CAMK2N1 (11719241_x_at) / RFU C5orf56 (11738088_a_at) / Fold change /veh C5orf56 (11738088_a_at) / RFU OLFML3 (11715873_a_at) / Fold change /veh OLFML3 (11715873_a_at) / RFU LOC100653217 /// NTM (11731650_a_at) / Fold change /veh LOC100653217 /// NTM (11731650_a_at) / RFU MAPK11 (11762145_a_at) / Fold change /veh MAPK11 (11762145_a_at) / RFU FIZ1 (11724087_x_at) / Fold change /veh FIZ1 (11724087_x_at) / RFU OASL (11726364_x_at) / Fold change /veh OASL (11726364_x_at) / RFU SOX15 (11748057_x_at) / Fold change /veh SOX15 (11748057_x_at) / RFU CD79A (11719716_a_at) / Fold change /veh CD79A (11719716_a_at) / RFU HIST1H1D (11736915_at) / Fold change /veh HIST1H1D (11736915_at) / RFU CASKIN2 (11723855_a_at) / Fold change /veh CASKIN2 (11723855_a_at) / RFU LOC730098 (11760151_x_at) / Fold change /veh LOC730098 (11760151_x_at) / RFU OR4N2 (11742367_at) / Fold change /veh OR4N2 (11742367_at) / RFU PRRT2 (11749266_a_at) / Fold change /veh PRRT2 (11749266_a_at) / RFU SNX32 (11753110_a_at) / Fold change /veh SNX32 (11753110_a_at) / RFU CDHR5 (11726645_a_at) / Fold change /veh CDHR5 (11726645_a_at) / RFU RCAN1 (11760418_a_at) / Fold change /veh RCAN1 (11760418_a_at) / RFU FAM167A (11723789_a_at) / Fold change /veh FAM167A (11723789_a_at) / RFU FAM26E (11764081_at) / Fold change /veh FAM26E (11764081_at) / RFU ISYNA1 (11749810_s_at) / Fold change /veh ISYNA1 (11749810_s_at) / RFU ACY1 (11761880_at) / Fold change /veh ACY1 (11761880_at) / RFU 11764098_at / Fold change /veh 11764098_at / RFU SAMD14 (11745864_x_at) / Fold change /veh SAMD14 (11745864_x_at) / RFU NPB (11741838_a_at) / Fold change /veh NPB (11741838_a_at) / RFU TMPRSS6 (11731388_a_at) / Fold change /veh TMPRSS6 (11731388_a_at) / RFU KRTAP10-2 (11738614_at) / Fold change /veh KRTAP10-2 (11738614_at) / RFU ARHGAP8 /// PRR5-ARHGAP8 (11727945_x_at) / Fold change /veh ARHGAP8 /// PRR5-ARHGAP8 (11727945_x_at) / RFU KRTAP5-7 /// NADSYN1 (11734609_at) / Fold change /veh KRTAP5-7 /// NADSYN1 (11734609_at) / RFU RASL12 (11751679_a_at) / Fold change /veh RASL12 (11751679_a_at) / RFU CDKN2B (11736163_a_at) / Fold change /veh CDKN2B (11736163_a_at) / RFU PRF1 (11729649_at) / Fold change /veh PRF1 (11729649_at) / RFU, ZNF638 /// ZNF638-IT1 / Fold change vs veh, ZNF638 /// ZNF638-IT1 / RFU, PANK3 / Fold change vs veh, PANK3 / RFU, SH3YL1 / Fold change vs veh, SH3YL1 / RFU, ZEB2 / Fold change vs veh, ZEB2 / RFU, NRIP1 / Fold change vs veh, NRIP1 / RFU, PTTG1IP / Fold change vs veh, PTTG1IP / RFU, CAPN2 / Fold change vs veh, CAPN2 / RFU, MED14 / Fold change vs veh, MED14 / RFU, SNORA58 / Fold change vs veh, SNORA58 / RFU, C1orf63 / Fold change vs veh, C1orf63 / RFU, LRRFIP1 / Fold change vs veh, LRRFIP1 / RFU, NDUFAF7 / Fold change vs veh, NDUFAF7 / RFU, SLC12A2 / Fold change vs veh, SLC12A2 / RFU, IBTK / Fold change vs veh, IBTK / RFU, ESF1 / Fold change vs veh, ESF1 / Fold change vs veh, TMEM50B / RFU, TAOK1 / Fold change vs veh, TAOK1 / RFU, ACBD3 / Fold change vs veh, ACBD3 / RFU, TMA16 / Fold change vs veh, TMA16 / RFU, RWDD3 / Fold change vs veh, RWDD3 / RFU, BCAT1 / Fold change vs veh, BCAT1 / RFU, EDEM3 / Fold change vs veh, EDEM3 / RFU, TMEM33 / Fold change vs veh, TMEM33 / RFU, WDR75 / Fold change vs veh, WDR75 / RFU, AHCTF1 / Fold change vs veh, AHCTF1 / RFU, TFRC / Fold change vs veh, TFRC / RFU, ZDHHC17 / Fold change vs veh, ZDHHC17 / RFU, NOM1 / Fold change vs veh, NOM1 / RFU, ARL8B / Fold change vs veh, ARL8B / RFU, ZBTB11 / Fold change vs veh, ZBTB11 / RFU, TAMM41 / Fold change vs veh, TAMM41 / RFU, KIAA1704 /// LOC100996395 / Fold change vs veh, KIAA1704 /// LOC100996395 / RFU, ING1 / Fold change vs veh, ING1 / RFU, TRMT61B / Fold change vs veh, TRMT61B / RFU, FUBP3 / Fold change vs veh, FUBP3 / RFU, TP53 / Fold change vs veh, TP53 / RFU, TNKS2 / Fold change vs veh, TNKS2 / RFU, ZFP14 / Fold change vs veh, ZFP14 / RFU, ACTR2 / Fold change vs veh, ACTR2 / RFU, PPP3R1 / Fold change vs veh, PPP3R1 / RFU, PIK3R1 / Fold change vs veh, PIK3R1 / RFU, HNRNPA1 / Fold change vs veh, HNRNPA1 / RFU, RNF170 / Fold change vs veh, RNF170 / RFU, ZNF28 / Fold change vs veh, ZNF28 / RFU, RNGTT / Fold change vs veh, RNGTT / RFU, OGT / Fold change vs veh, OGT / RFU, BRD1 / Fold change vs veh, BRD1 / RFU, MARS / Fold change vs veh, MARS / RFU, ZNF655 / Fold change vs veh, ZNF655 / RFU, FAHD1 / Fold change vs veh, FAHD1 / RFU, BDP1 / Fold change vs veh, BDP1 / RFU, LRRCC1 / Fold change vs veh, LRRCC1 / RFU, ARID1A / Fold change vs veh, ARID1A / RFU, ZNF146 / Fold change vs veh, ZNF146 / RFU, ZNF330 / Fold change vs veh, ZNF330 / RFU, GPN3 / Fold change vs veh, GPN3 / RFU, C9orf123 / Fold change vs veh, C9orf123 / RFU, N4BP2L2 / Fold change vs veh, N4BP2L2 / RFU, ARFIP1 / Fold change vs veh, ARFIP1 / RFU, FAM179B / Fold change vs veh, FAM179B / RFU, BCL10 / Fold change vs veh, BCL10 / RFU, UHRF1BP1L / Fold change vs veh, UHRF1BP1L / RFU, BET1 / Fold change vs veh, BET1 / RFU, CNOT2 / Fold change vs veh, CNOT2 / RFU, ZNF268 / Fold change vs veh, ZNF268 / Fold change vs veh, ZNF507 / RFU, DGCR2 / Fold change vs veh, DGCR2 / RFU, WDSUB1 / Fold change vs veh, WDSUB1 / Fold change vs veh, HSP90B1 /// MIR3652 / RFU, ADSS / Fold change vs veh, ADSS / RFU, GK / Fold change vs veh, GK / RFU, ZNF148 / Fold change vs veh, ZNF148 / RFU, TAF9 / Fold change vs veh, TAF9 / RFU, SLC1A5 / Fold change vs veh, SLC1A5 / RFU, SLMO2 / Fold change vs veh, SLMO2 / RFU, ABCC4 / Fold change vs veh, ABCC4 / RFU, LOC101060439 /// RAP1B / Fold change vs veh, LOC101060439 /// RAP1B / RFU, RFX7 / Fold change vs veh, RFX7 / RFU, GTPBP10 / Fold change vs veh, GTPBP10 / RFU, CNEP1R1 / Fold change vs veh, CNEP1R1 / RFU, BIVM-ERCC5 /// ERCC5 / Fold change vs veh, BIVM-ERCC5 /// ERCC5 / RFU, ILF3 / Fold change vs veh, ILF3 / RFU 11762660_at / Fold change /veh 11762660_at / RFU VCAN (11757783_s_at) / Fold change /veh VCAN (11757783_s_at) / RFU DDX43 (11728927_at) / Fold change /veh DDX43 (11728927_at) / RFU KRT8 (11758188_x_at) / Fold change /veh KRT8 (11758188_x_at) / RFU NKD1 (11759106_at) / Fold change /veh NKD1 (11759106_at) / RFU SRD5A1 (11742802_a_at) / Fold change /veh SRD5A1 (11742802_a_at) / RFU TPSAB1 /// TPSB2 (11721975_s_at) / Fold change /veh TPSAB1 /// TPSB2 (11721975_s_at) / RFU GSTM3 (11746129_a_at) / Fold change /veh GSTM3 (11746129_a_at) / RFU IL23R (11737362_x_at) / Fold change /veh IL23R (11737362_x_at) / RFU TMEM51 (11727254_a_at) / Fold change /veh TMEM51 (11727254_a_at) / RFU PIWIL2 (11732686_x_at) / Fold change /veh PIWIL2 (11732686_x_at) / RFU ORM1 (11744905_x_at) / Fold change /veh ORM1 (11744905_x_at) / RFU CCDC152 (11743942_at) / Fold change /veh CCDC152 (11743942_at) / RFU ECM1 (11717891_a_at) / Fold change /veh ECM1 (11717891_a_at) / RFU IL23R (11748794_a_at) / Fold change /veh IL23R (11748794_a_at) / RFU TNFAIP8L3 (11732012_x_at) / Fold change /veh TNFAIP8L3 (11732012_x_at) / RFU MBOAT4 (11741988_at) / Fold change /veh MBOAT4 (11741988_at) / RFU 11764193_at / Fold change /veh 11764193_at / RFU TMEM53 (11763286_at) / Fold change /veh TMEM53 (11763286_at) / RFU MAGEB2 (11727129_at) / Fold change /veh MAGEB2 (11727129_at) / RFU TMEM200A (11744735_a_at) / Fold change /veh TMEM200A (11744735_a_at) / RFU CCDC152 (11751479_a_at) / Fold change /veh CCDC152 (11751479_a_at) / RFU FAM211A (11726209_a_at) / Fold change /veh FAM211A (11726209_a_at) / RFU RGS16 (11746705_a_at) / Fold change /veh RGS16 (11746705_a_at) / RFU VCAN (11755009_s_at) / Fold change /veh VCAN (11755009_s_at) / RFU RHOB (11743442_s_at) / Fold change /veh RHOB (11743442_s_at) / RFU RGS16 (11720943_a_at) / Fold change /veh RGS16 (11720943_a_at) / RFU RGS16 (11720944_at) / Fold change /veh RGS16 (11720944_at) / RFU, VPS4B / Fold change vs veh, VPS4B / RFU, CREB1 / Fold change vs veh, CREB1 / RFU, DNAJC13 / Fold change vs veh, DNAJC13 / RFU, GNAQ / Fold change vs veh, GNAQ / RFU, CDK5R1 / Fold change vs veh, CDK5R1 / RFU, ZRANB3 / Fold change vs veh, ZRANB3 / RFU, CUL4A / Fold change vs veh, CUL4A / RFU, CCNY / Fold change vs veh, CCNY / RFU, UFL1 / Fold change vs veh, UFL1 / RFU, COG3 / Fold change vs veh, COG3 / RFU, DIAPH2 / Fold change vs veh, DIAPH2 / RFU, SKA2 / Fold change vs veh, SKA2 / RFU, AFF3 / Fold change vs veh, AFF3 / RFU, LMF1 / Fold change vs veh, LMF1 / RFU, IPO11 / Fold change vs veh, IPO11 / RFU, DFFB / Fold change vs veh, DFFB / RFU, FOXP1 / Fold change vs veh, FOXP1 / RFU, CARD8 / Fold change vs veh, CARD8 / RFU, STRN3 / Fold change vs veh, STRN3 / RFU, ADK / Fold change vs veh, ADK / RFU, RASSF2 / Fold change vs veh, RASSF2 / RFU, WIPF1 / Fold change vs veh, WIPF1 / RFU, LARP1B / Fold change vs veh, LARP1B / RFU, RASA1 / Fold change vs veh, RASA1 / RFU, RB1 / Fold change vs veh, RB1 / RFU, PPFIA1 / Fold change vs veh, PPFIA1 / RFU, MAT2A / Fold change vs veh, MAT2A / RFU, CCT5 / Fold change vs veh, CCT5 / RFU, WDR92 / Fold change vs veh, WDR92 / RFU, CUX1 / Fold change vs veh, CUX1 / RFU, TTC7A / Fold change vs veh, TTC7A / RFU, TMEM135 / Fold change vs veh, TMEM135 / RFU, DEPTOR / Fold change vs veh, DEPTOR / RFU, CPM / Fold change vs veh, CPM / RFU, DNAJB6 / Fold change vs veh, DNAJB6 / RFU, CACNA2D3 / Fold change vs veh, CACNA2D3 / RFU, DTX4 / Fold change vs veh, DTX4 / RFU, TFCP2 / Fold change vs veh, TFCP2 / RFU, GMCL1 /// GMCL1P1 / Fold change vs veh, GMCL1 /// GMCL1P1 / RFU, AEBP2 / Fold change vs veh, AEBP2 / RFU, SNHG1 /// SNORD22 /// SNORD25 /// SNORD26 /// SNORD27 /// SNORD28 /// SNORD29 /// SNORD31 / Fold change vs veh, SNHG1 /// SNORD22 /// SNORD25 /// SNORD26 /// SNORD27 /// SNORD28 /// SNORD29 /// SNORD31 / Fold change (Aza/veh), C12orf56 (ProbeSet 11735607_a_at) / Fold change (ACY-1035/veh), C12orf56 (ProbeSet 11735607_a_at) / Fold change (Aza/veh), FGFR1OP (ProbeSet 11751329_s_at) / Fold change (ACY-1035/veh), FGFR1OP (ProbeSet 11751329_s_at) / Fold change (Aza/veh), VPS36 (ProbeSet 11739960_a_at) / Fold change (ACY-1035/veh), VPS36 (ProbeSet 11739960_a_at) / RFU SYPL1 (11715823_x_at) / Fold change /veh SYPL1 (11715823_x_at) / RFU IGFBP7 (11715501_s_at) / Fold change /veh IGFBP7 (11715501_s_at) / RFU REEP3 (11722064_at) / Fold change /veh REEP3 (11722064_at) / RFU IGLL1 (11728026_x_at) / Fold change /veh IGLL1 (11728026_x_at): dose or concentration left out as unconfirmed
Conditions: MV-4-11 cells, 48 hours

For `Nc1ncn([C@@H]2O[C@H](CO)[C@@H](O)[C@H]2O)c(=O)n1` [azacitidine], the “Fold change /veh TMEM51 (11727254_a_at)” value was 1.21.

Source: PMC5218480 (PLoS ONE, 2017)
